Results: patent publication US20260240878A1, “PTP1B/TC-PTP DUAL INHIBITORS AND PROTEIN DEGRADERS” (Purdue Research Foundation, priority 2023, published 2026)

Experiments:
PTP1B [1] = biological target: T1, PTP1B (Homo sapiens, UniProt P18031); experiment: FP-based library screening (fluorescence polarization displacement); format: binding
T1 sequence (P18031 1-435): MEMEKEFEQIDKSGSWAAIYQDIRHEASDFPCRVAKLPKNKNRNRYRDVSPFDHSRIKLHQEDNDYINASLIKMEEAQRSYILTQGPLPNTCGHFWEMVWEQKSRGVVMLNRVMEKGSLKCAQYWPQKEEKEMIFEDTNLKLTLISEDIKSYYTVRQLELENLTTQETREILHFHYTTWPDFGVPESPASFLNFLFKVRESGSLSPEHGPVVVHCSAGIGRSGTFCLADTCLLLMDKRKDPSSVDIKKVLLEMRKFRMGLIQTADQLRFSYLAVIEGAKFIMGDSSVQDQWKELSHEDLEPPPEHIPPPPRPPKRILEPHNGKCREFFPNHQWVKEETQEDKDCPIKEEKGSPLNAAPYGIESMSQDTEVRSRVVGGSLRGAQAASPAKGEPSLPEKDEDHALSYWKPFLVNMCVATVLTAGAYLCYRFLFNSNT
Protocol: (§1) The library screening assay was carried out on a Tecan Genesis workstation with a 96-channel tip block with fixed tips. Before the screening, the library compounds were diluted from the DMSO stock solution into 3,3-dimethylglutarate buffer (50 mM 3,3-dimethylglutarate buffer, pH 7.0, containing 1 mM EDTA with an ionic strength of 0.15 M adjusted by addition of NaCl), resulting in a set of six daughter plates with an ~75 nM concentration of each compound in each well. In the first screen, PTP1B or TCPTP (2 μM in 50 mM 3,3-dimethylglutarate buffer, 50 μL, pH 7.0, containing 1 mM EDTA with an ionic strength of 0.15 M adjusted by addition of NaCl) was dispensed into each well of a 384-well plate, and then 2 μL of the fluorescein-tagged library compounds were transferred from four 96-well intermediate plates to the 384-well plate (final compound concentration ~3 nM). The fluorescence polarization values (A1) were recorded on an Envision 2021 Multilabel Microplate Reader (Perkin-Elmer). In the second screen, 50 μL of a mixture of 2 μM PTP1B or TCPTP and 500 μM Fmoc-F2Pmp-OH (as a competitive ligand) in 3,3-dimethylglutarate buffer (50 mM 3,3-dimethylglutarate buffer, pH 7.0, containing 1 mM EDTA with an ionic strength of 0.15 M adjusted by addition of NaCl) were dispensed into each well of another 384-well plate, followed by the addition of 2 μL of the fluorescein tagged library compounds (75 nM in 3,3-dimethylglutarate buffer, pH 7.0, containing 1 mM EDTA with an ionic strength of 0.15 M adjusted by addition of NaCl). The fluorescence polarization values (A2) were again measured. A displacement percentage was calculated for each library compound as (A1−A2)/(A1−A0)×100%, where A1 and A2 are the fluorescence anisotropy values of each sample as described, and A0 is the fluorescence anisotropy of free library compounds in 3,3-dimethylglutarate buffer. To simplify the calculation, A0 was set to 30. The binding affinity ranking of each compound was determined on the displacement percentage: the […] the displacement percentage, the higher the binding affinity.
(§2) The library was screened using the same protocol as the library 1, except that 0.5 μM PTP1BB/TC-PTP and 1.5 mM competitive ligand Fmoc-F2Pmp-OH were used.
(§3) The library was screened using the same protocol as the library 1, except that 0.5 μM PTP1B/TC-PTP and 5 μM ((4-((S)-2-((S)-2-acetamido-3-phenylpropanamido)-3-(((S)-1-amino-6-(3-bromo-4-methylbenzamido)-1-oxohexan-2-yl)amino)-3-oxopropyl)phenyl)difluoromethyl)phosphonic acid (as a competitor) were used.

TC-PTP [2] = biological target: T2, TC-PTP (Homo sapiens, UniProt P17706); experiment: as above; format: binding
T2 sequence (P17706 1-415): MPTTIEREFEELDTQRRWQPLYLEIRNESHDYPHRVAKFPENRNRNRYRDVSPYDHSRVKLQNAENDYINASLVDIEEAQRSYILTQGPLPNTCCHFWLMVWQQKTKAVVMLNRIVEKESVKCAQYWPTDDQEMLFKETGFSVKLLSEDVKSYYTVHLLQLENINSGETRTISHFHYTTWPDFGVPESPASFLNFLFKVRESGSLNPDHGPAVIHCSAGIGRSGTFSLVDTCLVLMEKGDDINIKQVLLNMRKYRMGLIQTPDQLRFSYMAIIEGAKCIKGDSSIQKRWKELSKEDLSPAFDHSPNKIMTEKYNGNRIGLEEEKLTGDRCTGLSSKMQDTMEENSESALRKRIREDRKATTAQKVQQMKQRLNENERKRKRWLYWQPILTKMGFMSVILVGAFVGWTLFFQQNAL
Protocol: as §1, §2, §3

PTP1B [3] = biological target: T1, PTP1B; experiment: PTP activity assay with pNPP substrate (IC50, Ki, mode of inhibition); format: biochemical
Protocol: (§4) PTP activity was assayed using p-nitrophenyl phosphate (pNPP) as a substrate in DMG buffer (50 mM DMG. pH 7.0, 1 mM EDTA, 150 mM NaCl, 2 mM DTT, 0.1 mg/mL BSA) at 25° C. The assays were performed in 96-well plates. Normally, to determine the IC50 values, the reaction was initiated by the addition of enzyme (for PTP1B and TCPTP, the final concentration was 0.4 nM, for other PTPs, the final concentration was 10 nM) to a reaction mixture (0.2 mL) containing 2 mM (Km for the substrate) pNPP with various concentrations of inhibitors (see FIG. 1). The reaction rate was measured using a SpectraMax Plus 384 Microplate Spectrophotometer (Molecular Devices). Data were fitted using SigmaPlot Enzyme Kinetics Module (Systat Software, Inc.). To determine the mode of inhibition, the reactions were initiated by the addition of enzyme (final concentration for TC-PTP and PTP1B was 0.4 nM) to the reaction mixtures (0.2 mL) containing various concentrations of pNPP with different concentrations of the inhibitor. Data were fitted using SigmaPlot Enzyme Kinetics Module (Systat Software. Inc.).

TC-PTP [4] = biological target: T2, TC-PTP; experiment: as above; format: biochemical
Protocol: as §4

PTP1B [5] = biological target: T1, PTP1B; experiment: Degradation assay in HEK293 cells (immunoblotting); format: cell-based; set-up: endogenous in cells; host or cells: HEK293; settings: 0.2 μM degrader, 16 hours
Protocol: (§5) HEK293. MIAPaCa-2, HepG2, U2OS, H116, MEF, B16F10, and MC38 cells, were grown in DMEM, while Jurkat and H358 cells were grown in RPMI 1640 supplemented with 10% fetal bovine serum, penicillin (50 units/mL), and streptomycin (50 μg/mL) in a 37° C. incubator containing 5% CO2. 20 ng/ml human (Biolegend #713906) or mouse (Biolegend #714006) Interferon-γ were used for JAK/STAT pathway stimulation.
(§6) Tissues or cultured cells were lysed with ice-cold lysis buffer (50 mM Tris (pH 8.0, 150 mM NaCl, 10% Glycerol, 1% Triton-X-100) supplied with phosphatase inhibitor (Bimake) and protease inhibitor mixture (Roche Applied Science). Equal amounts of protein were resolved by SDS-PAGE, transferred to nitrocellulose membrane, and subjected to immunoblotting. Antibodies used in this study include anti-following proteins: pSTAT1^Tyr701 (Cell Signaling Technology #9167, 1:3000), GAPDH (Cell Signaling Technology #97166, 1:5000), pJAK1^Tyr1034/1035 (Cell Signaling Technology #74129, 1:1000), pJAK2^Tyr1007/1008 (Cell Signaling Technology #3776, 1:1000), TC-PTP (Abcam #ab180764, 1:3000). PTP1B (Abcam #ab244207, 1:1500).
(§7) Degradation assay was conducted in HEK293 cells with 1 μM degrader and 24 hours incubation.
(§8) The degradation assay was conducted in HEK293 cells with 0.2 μM degrader and 16 hours incubation.

TC-PTP [6] = biological target: T2, TC-PTP; experiment: Degradation assay in HEK293 cells (immunoblotting); format: cell-based; set-up: endogenous in cells; host or cells: HEK293; settings: 0.2 μM degrader, 16 hours, read-out: % Protein Degradation TC-PTP
Protocol: as §5, §6, §7, §8

[7] = library 3, 0.5 μM enzyme, 5 μM Example 6 compound as competitor
[8] = library 2, 0.5 μM enzyme, 1.5 mM Fmoc-F2Pmp-OH
[9] = library 1, 2 μM PTP1B, 500 μM Fmoc-F2Pmp-OH competitive ligand, smaller = higher affinity
[10] = library 1, 2 μM TCPTP, 500 μM Fmoc-F2Pmp-OH competitive ligand, smaller = higher affinity

Compound | Displacement %, PTP1B (PTP1B [1]; [7]) [%] | Displacement %, TC-PTP (TC-PTP [2]; [7]) [%] | Displacement %, PTP1B (PTP1B [1]; [8]) [%] | Displacement %, TC-PTP (TC-PTP [2]; [8]) [%] | Displacement %, PTP1B (PTP1B [1]; [9]) [%] | Displacement %, TC-PTP (TC-PTP [2]; [10]) [%] | also measured
2-(3-fluoro-4- hydroxyphenyl)acetic acid | 72 | 75 |  |  |  |  | 
2-(4-chloro-2- methylphenoxy)acetic acid |  |  | 57 | 55 |  |  | 
3-bromo-4- methylbenzoic acid |  |  |  |  | 34 | 39 | 
COc1cc(CC(=O)N[C@@H](Cc2ccccc2)C(=O)N[C@@H](Cc2ccc(C(F)(F)P(=O)(O)O)cc2)C(=O)N[C@@H](CCCCNC(=O)c2ccc(C)c(Br)c2)C(=O)NCc2ccccc2CCC(=O)N[C@H](C(=O)N2C[C@H](O)C[C@H]2C(=O)NCc2ccc(-c3scnc3C)cc2)C(C)(C)C)ccc1O (stereo in doubt) [Compound 40, ((4-((S)-3-(((S)-6-(3-bromo-4-methylbenzamido)-1-((2-(3-(((S)-1-((2S,4R)-4-hydroxy-2-((4-(4-methylthiazol-5-yl)benzyl)carbamoyl)pyrrolidin-1-yl)-3,3-dimenthyl-1-oxobutan-2-yl)amino)-3-oxopropyl)benzyl)amino)-1-oxohexan-2-yl)amino)-2-((S)-2-(2-(4-hydroxy-3-methoxyphenyl)acetamido)-3-phenylpropanamido)-3-oxopropyl)phenyl)difluoromethyl)phosphonic Acid] |  |  |  |  |  |  | IC50 (PTP1B [3]): 3.8 ± 0.4 nM; IC50 (TC-PTP [4]): 2.9 ± 0.5 nM; % Protein Degradation PTP1B (PTP1B [5]): 16%; percent TC-PTP degradation at 0.2 µM (TC-PTP [6]): 0%
CN(C)c1ccc(CC(=O)O)cc1 [2-(4-(dimethylamino)phenyl) acetic acid] | 81 | 79 |  |  |  |  | 
O=C(O)Cc1ccc(Br)cc1 [2-(4-bromophenyl)acetic acid] | 77 | 77 |  |  |  |  | 
COc1cc(CC(=O)O)ccc1O [2-(4-hydroxy-3-methoxyphenyl)acetic acid] | 51 | 54 |  |  |  |  | 
O=C(O)Cc1ccc(O)cc1 [2-(4-hydroxyphenyl)acetic acid] | 66 | 62 |  |  |  |  | 
Cc1ccc(CCC(=O)O)cc1 [3-(p-tolyl)propanoic acid] |  |  | 47 | 53 |  |  | 
COc1ccc(C(=O)O)cc1F [3-fluoro-4-methoxybenzoic acid] |  |  |  |  | 57 | 54 | 
COc1cc(C(=O)O)ccc1[N+](=O)[O-] [3-methoxy-4-nitrobenzoic acid] |  |  |  |  | 41 | 40 | 
O=C(O)c1ccsc1 [3-thiophenecarboxylic acid] |  |  |  |  | 45 | 51 | 
O=C(O)c1ccc(F)cc1 [4-fluorobenzoic acid] |  |  |  |  | 44 | 46 | 
CCOC(=O)N[C@@H](Cc1ccccc1)C(=O)O [(ethoxycarbonyl)-L- phenylalanine] |  |  | 44 | 41 |  |  | 
CC(=O)N[C@@H](Cc1ccccc1)C(=O)O [acetyl-L-phenylalanine] |  |  | 37 | 41 |  |  | 
(S)-2-acetamido-3-(4- fluorophenyl)propanoic acid |  |  | 45 | 45 |  |  | 
